From ChEMBL document CHEMBL1201862, “PubChem BioAssay data set” (2004) come the findings set out here.

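Test compounds were applied to cells in 96-well plates for 48 hours at 5 doses. At the GI50, growth is halved.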 The source made the active and inactive calls. Rule as the data show it: active = GI50 up to about 1.1 µM and inactive = higher.

Test systems include NCI-H522; UACC-62; OVCAR-5; COLO 205; LOX IMVI; OVCAR-3; A549; SNB-75; OVCAR-4; HOP-62; Malme-3M; SNB-19; T47D; CAKI-1; U-251; KM-20L2; MCF7; DU-145; MDA-MB-231; PC-3.
What all share (assay): DTP human tumour cell line panel, 48 h

Regarding `CN(C)CCCn1c2c3ccccc3ccc2c2oc(=O)c3ccccc3c21`, the GI50 (as a rule, the concentration that inhibits growth by half) in the experiment on NCI-H522 was 3.52 µM (inactive); with UACC-62, 8.63 µM (inactive); with OVCAR-5, 32.6 µM (inactive); in the experiment on COLO 205, 2.48 µM (inactive); in the experiment with LOX IMVI it was 4.63 µM (inactive); with OVCAR-3, 5.48 µM (inactive). In addition, the GI50 in the experiment with A549 was 4.53 µM (inactive); in the experiment on SNB-75, 2.48 µM (inactive); with OVCAR-4, 6.38 µM (inactive); in the experiment with HOP-62, 5.7 µM (inactive); with Malme-3M, 7.64 µM (inactive); in the experiment with SNB-19 it was 5.96 µM (inactive). Moreover, the GI50 was 12.1 µM (inactive) in the experiment with T47D; 7.76 µM (inactive) with CAKI-1; 3.26 µM (inactive) with U-251; 1.39 µM (inactive) with KM-20L2; 7.19 µM (inactive) in the experiment with MCF7.

`O=C1NC(=S)NC(=O)C1=C(O)Nc1ccccc1`: the GI50 with NCI-H522 is 21.7 µM (inactive); with UACC-62, 19.5 µM (inactive); in the experiment on OVCAR-5, 47.2 µM (inactive); in the experiment with COLO 205, 27.4 µM (inactive); with LOX IMVI it was 23.3 µM (inactive); with OVCAR-3, 25.5 µM (inactive). In addition, the GI50 with A549 was 24.1 µM (inactive); with SNB-75, 27.7 µM (inactive); in the experiment on OVCAR-4, 34.6 µM (inactive); in the experiment with DU-145, 30.5 µM (inactive); in the experiment with MDA-MB-231, 31.8 µM (inactive); with HOP-62, 23.2 µM (inactive). Moreover, the GI50 in the experiment with Malme-3M was 25.8 µM (inactive); in the experiment with SNB-19 it was 25.8 µM (inactive); in the experiment on PC-3 it was 15 µM (inactive); in the experiment on T47D, 28.2 µM (inactive); in the experiment with CAKI-1, 20.8 µM (inactive); in the experiment with U-251, 27.5 µM (inactive). For the same compound, the GI50 in the experiment with KM-20L2 is 44.9 µM (inactive); in the experiment on MCF7, 19.1 µM (inactive).

For `O=C1c2cccc(NCCNCCO)c2C(=O)c2cccc(NCCNCCO)c21`, the concentration for 50% growth inhibition (GI50) was 0.312 µM (active) with NCI-H522; 1.81 µM (inactive) in the experiment on UACC-62; 1.53 µM (inactive) in the experiment on OVCAR-5; 0.661 µM (active) with COLO 205; 0.272 µM (active) with LOX IMVI; 1.57 µM (inactive) with OVCAR-3. Also, the GI50 in the experiment on A549 is 1.56 µM (inactive); in the experiment on SNB-75, 1.03 µM (active); with OVCAR-4 it was 0.889 µM (active); with DU-145 it was 0.612 µM (active); in the experiment on HOP-62, 1.29 µM (inactive); in the experiment on Malme-3M it was 1.82 µM (inactive). The GI50 with SNB-19 was 0.897 µM (active); with PC-3 it was 0.733 µM (active); with T47D, 1.69 µM (inactive); with CAKI-1, 0.64 µM (active); with U-251, 0.792 µM (active); in the experiment with KM-20L2, 1.18 µM (inactive). Further, the 50% growth inhibitory concentration (GI50) with MCF7 is 0.39 µM (active).
